From article PMC8834506, “Optimization of Thymidine Kinase-Based Safety Switch for Neural Cell Therapy” (Cells, 2022) come the findings set out here.

Where two headings read alike, the source gives them in different places.

Common to all, as to assay: ATP-based cell survival assay, GCV-induced cell death
For assay [1], the system named is hESC (HS420) expressing Ki67-30-GMK. The note with it: Homo sapiens, 96 h, read-out: EC50 of GCV (cell survival). The protocol:
(§1) Our first generation of suicide gene was engineered with the wild type thymidine kinase (wt-TK). To improve the suicide gene efficacy, we investigated different TK variants; wt-TK, 30-GMK, SR39, SR39h, and SR39h D116E variants. These sequences were chosen based on the analysis of the literature investigating HSV1-TK variants, as well as a gain of function mutation in the CMV UL-97 kinase. The efficacy of each variants was determined as percentage of cell survival following prodrug treatment compared to non-treated hESC. For this purpose, we used the ATP-based assay, which measures cellular ATP content and thereby provides a reliable estimate of the number of healthy cells. […]
(§2) Figure 1 EC50 of ganciclovir (GCV) in cell expressing different thymidine kinase (TK) variants. […] Number of surviving cells was monitored using bioluminescent ATP-based assay. […]
(§3) Cell culture plate (96 wells plate Corning #3907, Corning, Lonay, Switzerland) were pre-coated with 60 μL per well of Poly-L-ornithine solution (Sigma, Merk, Eysins, Switzerland) at 37 °C for 30 min. […] For EC50 assays, the medium was changed daily for 4 days, then cell viability was assessed using an ATP-based assay. EC50 values for each construct were calculated using a four parameters equation (GraphPad, Prism8, San Diego, CA, USA). […]

Assay [2] concerns hESC (HS420) expressing Ki67-wt-TK. The note with it: Homo sapiens; 96 h GCV exposure; wt-TK under Ki67 promoter. The protocol: as §1, §2, §3
The subject of assay [3] is hESC (HS420) expressing Ki67-SR39. Further details: species or system human. The note with it: for EC50: Homo sapiens. As for the experimental part: Our first generation of suicide gene was engineered with the wild type thymidine kinase (wt-TK). To improve the suicide gene efficacy, we investigated different TK variants; wt-TK, 30-GMK, SR39, SR39h, and SR39h D116E variants. These sequences were chosen based on the analysis of the literature investigating HSV1-TK variants, as well as a gain of function mutation in the CMV UL-97 kinase. The efficacy of each variants was determined as percentage of cell survival following prodrug treatment compared to non-treated hESC. For this purpose, we used the ATP-based assay, which measures cellular ATP content and thereby provides a reliable estimate of the number of healthy cells. The 50% effective concentration (EC50) was defined as the drug concentration required to reduce the percentage of cell survival by 50%. […] In order to optimize our system, we first replaced the wt-TK by the 30-GMK variant, which is a fusion between the 30 TK variant and guanylate kinase (GMK). Note that GMK is mediating the second phosphorylation step of antiviral nucleoside analogs. […] Microbial codon usage might not yield optimal results in human cells. We therefore adapted the SR39 sequence to a typical human codon usage. For this purpose, 218 of the total 376 codons of the SR39 sequence were changed (for details see Supplementary Sequence 1 and Method section). We will refer to this sequence as the SR39h variant.
as §2, §3

What is called EC50 is the concentration giving half of the maximal effect. For the compound `Nc1nc(O)c2ncn(COC(CO)CO)c2n1` [GCV, ganciclovir], the concentration giving a half-maximal response (EC50) in assay [1] was 110 nM; in assay [2] it was 96 nM; in assay [3] (96 h, read-out: EC50 of GCV (cell survival)), 2 nM; in assay [3] (96 h GCV exposure, Ki67-SR39, read-out: GCV EC50) it was 1.9 nM. Also, the “Fold increase compare to wt-TK (fold reduction in EC50)” value in assay [3] (GCV EC50 ratio, Ki67-SR39 vs wt-TK) turned out to be 50 fold.
